Test results taken from patent publication US20100168055A1, “COMBINATION OF MONOSACCHARIDE WITH C-GLYCOSIDE DERIVATIVE AND USE THEREOF” (L'OREAL, priority 2008, published 2010).

What was measured:
[1] = test system: keratinocytes (HaCat line); assay: Keratinocyte proliferation in culture medium deficient in growth factors (Cyquant, Nile red, XTT probes); assay type: cell-based
Experimental: The keratinocytes (HaCat line) are cultured under two conditions: whole defined culture medium (standard condition) and culture medium deficient in growth factors. This deficient medium gives rise to a controlled delay in cell proliferation. Under these conditions, it is then possible to measure the effects of compounds capable of compensating for the deficiency in growth factors of the culture medium and thus of relaunching the cell multiplication and/or of stimulating cell metabolism.
The keratinocyte proliferation is measured by means of three markers on the same cell population: the level of DNA, which is proportional to the number of cells (Cyquant probe), the level of constituent polar lipids of cell membranes (Nile red probe) and the mitochondrial respiration, which reflects the general cell metabolism (XTT probe).

[2] = test system: type I procollagen; assay: Indirect immunofluorescence detection of type I procollagen in the dermis of reconstructed skin; assay type: cell-based, human
Experimental: Conventional detection via indirect immunofluorescence of type I procollagen in the dermis of the reconstructed skin was also performed on other series of frozen sections (anti-procoll 1 antibody (MAB 1912 Millipore)+FTIC-coupled conjugate (112-095-068 Jackson Immunoresearch)). In order to obtain bearings within the cutaneous architecture during the microscopic examination of the sections, the cell nuclei of the keratinocytes and fibroblasts are localized by staining them with propidium iodide, as described above. Three frozen sections are prepared at random on each reconstructed skin and on each section, and two microscopic fields (25× objective lens) are analysed by fluorescence microscopy and photographed. The levels of fluorescence proportional to the amount of type I procollagen are compared between the control skin and the skin treated with rhamnose.

[3] = test system: dermal fibroblasts of the reconstructed skin; assay: Count of dermal fibroblasts in whole reconstructed skin (propidium iodide staining of frozen sections); assay type: cell-based, human; settings: 5 mM; within 48 hours of treatment
Description: Rhamnose was studied on a model of whole reconstructed skin in order to measure its anti-aging efficacy on the dermal compartment.
Briefly, the model of reconstructed skin used is that described by Bell et al. (Bell E. et al., The reconstitution of living skin, J. Invest. Dermatol., 1983, July; 81): it includes a dermal equivalent on which is reconstructed a multistratified epidermis; the dermal equivalent is manufactured from acid-soluble collagen, culture medium containing serum and normal adult human fibroblasts. After 5 days of shrinkage, this equivalent is inoculated with keratinocytes and then cultured for 6 days in immersion and for 7 days in emersion in order to obtain a multistratified and differentiated epidermis having a horny layer.
The reconstructed skin is treated with 5 mM rhamnose for 2 days and 5 days in the culture medium; after the treatment, the reconstructed skins are included in Tissue Tek in order to produce frozen sections 7 μm thick with a cryostat. […] Three frozen sections are prepared at random on each reconstructed skin; on each section, two microscopic fields (25× objective lens) are analysed by fluorescence microscopy and photographed. The dermal fibroblasts are thus counted for each reconstructed skin on six images in total representing the six microscopic fields considered. […]

[4] = 1 mM, HaCat keratinocytes in medium depleted in growth factors, vs untreated control

With `C[C@H](O)[C@H](O)[C@@H](O)[C@@H](O)C=O` [rhamnose, L-rhamnose] the “efficacy on keratinocyte proliferation” value ([1]; 500 μM, medium depleted in growth factors) was “already show efficacy”, the “level of DNA (Cyquant)” value [1, 4] was “significantly increased” and the “level of polar lipids (Nile red signal)” value [1, 4] was “significantly increased”. For the same molecule, the “mitochondrial respiration (XTT signal)” value [1, 4] was “significantly increased”, the “number of cells compared with an untreated control (keratinocyte proliferation)” value ([1]; keratinocytes cultured in medium depleted in growth factor) was “higher number of cells” and the “synthesis of type I procollagen by the fibroblasts” value ([2]; 1 mM for 120 hours, reconstructed skin) was “greatly stimulated”. The “green fluorescence (proportional to amount of type I procollagen) compared with control skin” value ([2]; 1 mM for 120 hours, reconstructed skin section) was “marked increase”, the “procollagen 1 synthesis” value ([2]; 1 mM, reconstructed skin) was “stimulation” and the “procollagen 1 synthesis” value ([2]; 5 mM, reconstructed skin) was “stimulation”. The “growth of the dermal fibroblasts of the reconstructed skin” value [3] was “stimulation of growth”.
